Like-named read-outs stand apart in the source and are kept apart here.
Columns and labels:
NK1 receptors = NK1 receptors (Homo sapiens, UniProt P25103); test: in vitro binding to NK1 receptors
Protocol: (§1) The activity of compounds of the invention were tested in vitro for binding to NK1 and NK2 receptors.

NK2 receptors = target: T1, NK2 receptors (Homo sapiens, UniProt P21452); test: in vitro binding to NK2 receptors; design: Ki (NK2), % @ 1000: concentration or dose not given beside the values; details: for Ki (NK2), % @ 1000: @ 1000 (concentration unit not given)
T1 sequence (P21452 1-398): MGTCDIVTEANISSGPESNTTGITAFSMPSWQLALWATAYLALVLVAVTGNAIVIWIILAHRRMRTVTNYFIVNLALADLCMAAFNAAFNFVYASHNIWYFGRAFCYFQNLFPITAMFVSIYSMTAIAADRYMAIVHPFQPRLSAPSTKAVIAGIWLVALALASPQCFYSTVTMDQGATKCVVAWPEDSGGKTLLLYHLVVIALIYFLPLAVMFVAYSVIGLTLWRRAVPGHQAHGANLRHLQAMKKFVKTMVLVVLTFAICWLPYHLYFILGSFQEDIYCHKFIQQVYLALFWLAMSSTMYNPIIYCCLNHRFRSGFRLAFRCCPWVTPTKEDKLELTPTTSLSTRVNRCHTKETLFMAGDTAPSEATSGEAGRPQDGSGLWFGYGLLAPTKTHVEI
Protocol: as §1

Chain of NK1 receptors (P25103 whole entry): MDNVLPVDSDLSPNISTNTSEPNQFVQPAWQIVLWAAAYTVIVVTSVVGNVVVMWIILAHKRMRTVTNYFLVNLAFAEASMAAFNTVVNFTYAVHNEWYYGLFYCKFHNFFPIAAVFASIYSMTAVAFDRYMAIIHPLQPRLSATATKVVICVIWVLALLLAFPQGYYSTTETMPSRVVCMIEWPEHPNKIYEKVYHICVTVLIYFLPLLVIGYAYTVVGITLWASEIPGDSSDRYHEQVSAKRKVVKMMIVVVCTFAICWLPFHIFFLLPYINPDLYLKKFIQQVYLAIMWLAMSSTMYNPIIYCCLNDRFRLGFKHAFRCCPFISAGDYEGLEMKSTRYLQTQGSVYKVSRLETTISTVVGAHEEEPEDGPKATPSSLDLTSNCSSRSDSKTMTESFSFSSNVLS

Structure (SMILES)	Ki (NK1 receptors) [nM]	Ki (NK2 receptors; unit inferred) [nM]	Ki (NK2), % @ 1000 (NK2 receptors) [% @]	Ki (NK2 receptors) [nM]
OC(CNC1CCN(c2ncnc3scc(-c4ccccc4)c23)CC1)COc1ccc(F)cc1F (centres unmarked) [1-(2,4-Difluoro-phenoxy)-3-[1-(5-phenyl-thieno[2,3-d]pyrimidin-4-yl)-piperidin-4-ylamino]-propan-2-ol]	286	–	–	–
COc1ccc(OCC(O)CNC2CCN(c3ncnc4scc(-c5ccccc5)c34)CC2)c(Cl)c1 (centres unmarked) [1-(2-Chloro-4-methoxy-phenoxy)-3-[1-(5-phenyl-thieno[2,3-d]pyrimidin-4-yl)-piperidin-4-ylamino]-propan-2-ol]	109	1570	–	–
OC(CNC1CCN(c2ncnc3scc(-c4ccccc4)c23)CC1)COc1ccc(Cl)c(Cl)c1 (centres unmarked) [1-(3,4-Dichloro-phenoxy)-3-[1-(5-phenyl-thieno[2,3-d]pyrimidin-4-yl)-piperidin-4-ylamino]-propan-2-ol]	268	3390	–	–
OC(CNC1CCN(c2ncnc3scc(-c4ccccc4)c23)CC1)COc1ccc(F)c(F)c1 (centres unmarked) [1-(3,4-Difluoro-phenoxy)-3-[1-(5-phenyl-thieno[2,3-d]pyrimidin-4-yl)-piperidin-4-ylamino]-propan-2-ol]	75	–	28	–
COc1ccc(OCC(O)CNC2CCN(c3ncnc4scc(-c5ccccc5)c34)CC2)cc1OC (centres unmarked) [1-(3,4-Dimethoxy-phenoxy)-3-[1-(5-phenyl-thieno[2,3-d]pyrimidin-4-yl)-piperidin-4-ylamino]-propan-2-ol]	126	6250	–	–
OC(CNC1CCN(c2ncnc3scc(-c4ccccc4)c23)CC1)COc1cc(C(F)(F)F)cc(C(F)(F)F)c1 (centres unmarked) [1-(3,5-Bis-trifluoromethyl-phenoxy)-3-[1-(5-phenyl-thieno[2,3-d]pyrimidin-4-yl)-piperidin-4-ylamino]-propan-2-ol]	1310	> 1000	–	–
OC(CNC1CCN(c2ncnc3scc(-c4ccccc4)c23)CC1)COc1cc(F)cc(F)c1 (centres unmarked) [1-(3,5-Difluoro-phenoxy)-3-[1-(5-phenyl-thieno[2,3-d]pyrimidin-4-yl)-piperidin-4-ylamino]-propan-2-ol]	272	–	21	–
OC(CNC1CCN(c2ncnc3scc(-c4ccccc4)c23)CC1)COc1ccc(F)c(Cl)c1 (centres unmarked) [1-(3-Chloro-4-fluoro-phenoxy)-3-[1-(5-phenyl-thieno[2,3-d]pyrimidin-4-yl)-piperidin-4-ylamino]-propan-2-ol]	137	–	–	–
COc1cc(OCC(O)CNC2CCN(c3ncnc4scc(-c5ccccc5)c34)CC2)ccc1Cl (centres unmarked) [1-(4-Chloro-3-methoxy-phenoxy)-3-[1-(5-phenyl-thieno[2,3-d]pyrimidin-4-yl)-piperidin-4-ylamino]-propan-2-ol]	126	–	47	–
COc1ccc(OCC(O)CNC2CCN(c3ncnc4scc(-c5ccccc5)c34)CC2)cc1 (centres unmarked) [1-(4-Methoxy-phenoxy)-3-[1-(5-phenyl-thieno[2,3-d]pyrimidin-4-yl)-piperidin-4-ylamino]-propan-2-ol]	53	–	–	1700
OC(CNC1CCN(c2ncnc3sccc23)CC1)COc1ccc2c(c1)OCO2 (centres unmarked) [1-(Benzo[1,3]dioxol-5-yloxy)-3-(1-thieno[2,3-d]pyrimidin-4-yl-piperidin-4-ylamino)-propan-2-ol]	1830	–	–	–
Cc1csc2ncnc(N3CCC(NCC(O)COc4ccc5c(c4)OCO5)CC3)c12 (centres unmarked) [1-(Benzo[1,3]dioxol-5-yloxy)-3-[1-(5-methyl-thieno[2,3-d]pyrimidin-4-yl)-piperidin-4-ylamino]-propan-2-ol]	868	–	–	–
OC(CNC1CCN(c2ncnc3scc(-c4ccccc4)c23)CC1)COc1ccc2c(c1)OCO2 (centres unmarked) [1-(Benzo[1,3]dioxol-5-yloxy)-3-[1-(5-phenyl-thieno[2,3-d]pyrimidin-4-yl)-piperidin-4-ylamino]-propan-2-ol]	7.6	> 10000	–	–
OC(CNC1CCN(c2ncnc3scc(-c4ccccc4)c23)CC1)COc1ccc(OC(F)(F)F)cc1 (centres unmarked) [1-[1-(5-Phenyl-thieno[2,3-d]pyrimidin-4-yl)-piperidin-4-ylamino]-3-(4-trifluoromethoxy-phenoxy)-propan-2-ol]	15	–	49	–
Fc1ccc(OCC2CN(C3CCN(c4ncnc5scc(-c6ccccc6)c45)CC3)CCO2)cc1 (centres unmarked) [4-{4-[2-(4-Fluoro-phenoxymethyl)-morpholin-4-yl]-piperidin-1-yl}-5-phenyl-thieno[2,3-d]pyrimidine]	472	–	–	–
c1ccc(-c2csc3ncnc(N4CCC(N5CCOC(COc6ccc7c(c6)OCO7)C5)CC4)c23)cc1 (centres unmarked) [4-{4-[2-(Benzo[1,3]dioxol-5-yloxymethyl)-morpholin-4-yl]-piperidin-1-yl}-5-phenyl-thieno[2,3-d]pyrimidine]	1860	–	–	–
O=C1COC(COc2ccc3c(c2)OCO3)CN1C1CCN(c2ncnc3scc(-c4ccccc4)c23)CC1 (centres unmarked) [6-(Benzo[1,3]dioxol-5-yloxymethyl)-4-[1-(5-phenyl-thieno[2,3-d]pyrimidin-4-yl)-piperidin-4-yl]-morpholin-3-one]	1320	–	–	–
OC(CNC1CCN(c2ncnc3scc(-c4ccccc4)c23)CC1)COCc1ccccc1 (centres unmarked) [(3-Benzyloxy-2-hydroxy-propyl)-[1-(5-phenyl-thieno[2,3-d]pyrimidin-4-yl)-piperidin-4-yl]-ammonium; chloride]	141	–	–	2400
Cl.OC(CNC1CCN(c2ncnc3scc(-c4ccccc4)c23)CC1)COc1ccc(C(F)(F)F)cc1 (centres unmarked) [[2-Hydroxy-3-(4-trifluoromethyl-phenoxy)-propyl]-[1-(5-phenyl-thieno[2,3-d]pyrimidin-4-yl)-piperidin-4-yl]-ammonium; chloride]	53	–	14	–
Cl.OC(CNC1CCN(c2ncnc3scc(-c4ccccc4)c23)CC1)COc1ccc(Cl)c(Cl)c1 (centres unmarked) [[3-(3,4-Dichloro-phenoxy)-2-hydroxy-propyl]-[1-(5-phenyl-thieno[2,3-d]pyrimidin-4-yl)-piperidin-4-yl]-ammonium; chloride]	20	–	28	–
OC(CNC1CCN(c2ncnc3scc(-c4ccccc4)c23)CC1)COc1ccc(Cl)cc1 (centres unmarked) [[3-(4-Chloro-phenoxy)-2-hydroxy-propyl]-[1-(5-phenyl-thieno[2,3-d]pyrimidin-4-yl)-piperidin-4-yl]-ammonium; chloride]	910	> 10000	–	–

Source: patent US20040138238A1, “Substituted aminopyrimidine compounds as neurokinin antagonists” (priority 2002, published 2004)
